“Also recorded” adds a separate entry of the source. Ends that are not written are not given here. Me2 = dimethylated (lysine)

The subject of one test is G9A methyltransferase. The experiment in a line: In vitro methylation of K180me2 H1.0 peptide with G9A, products by LC-MS. The class given is biochemical. How it is done: In order to identify the precise sites of methylation by G9A and GLP methyltransferases on histone H1.0, in vitro methylation assays were performed and subsequently analyzed by Liquid Chromatography and High-resolution Mass Spectrometry (LC-MS) analysis. Methylation reactions were set up using either G9A methyltransferase (NEB, M0235S, Lot #0031201) or GLP methyltransferase (Cayman Chemical, 10755). The methyl donor in each reaction was unlabeled S-Adenosyl-L-Methionine (NEB, B9003S). The H1.0 substrate in each reaction was either unmodified H1.0 peptide labeled with biotin (ThermoFisher Scientific, Biotin-[…] (SEQ ID NO:69)), di-methylated H1.0 peptide (ThermoFisher Scientific, Biotin-[…]^(me2)PK (SEQ ID NO:70)), or full-length recombinant human H1.0 (NEB, M2501S). Methylation reactions were set up in triplicate for each condition as follows: 1×HMT reaction buffer (50 mM Tris-HCl, 5 mM MgCl2, 4 mM dithiothreitol, pH 9.0); 10U G9A or GLP Methyltransferase; 3.2 mM S-Adenosyl-L-Methionine; 500 ng unmodified or modified H1.0 peptide, or 1 μg full-length protein; final volume 10 μl. As controls, reactions were set up as above but without any methyltransferase present. All reactions were incubated in a thermocycler at 37° C. for 1 hour, and subsequently stopped by incubating on ice for 5 minutes. Samples were frozen at −80° C. prior to LC-MS analysis.
For the Liquid Chromatography and High-resolution Mass Spectrometry (LC-MS) analysis, samples were prepared as described above and about 1 μg o the product was injected onto a Thermo Scientific Easy nLC system configured with a 10 cm×100 um trap column and a 25 cm×100 um ID resolving column. Buffer A was 98% water, 2% methanol, and 0.2% formic acid. […] This ensured optimal full-scan data for quantification. […]
Protein identification was performed using Thermo Scientific Proteome Discoverer version 1.4 (including Sequest and Percolator algorithms) using RefSeqHuman sequence database. […] Protein quantification was performed using Pinpoint version 1.4 software. The Pinpoint quantification workflow included importing the Proteome Discoverer .msf files as spectral libraries. Identified peptides were subsequently quantified in MS .raw files using the Pinpoint peak finding, chromatographic alignment and area calculation algorithms.
To further address the sensitivity and specificity of G9A methylation to lysine 180 of H1.0 peptide, the K180me2 peptide (H1.0 AA 165-182) was used as a substrate in similar in vitro methylation experiments. Only minor quantitates of further methylated peptide were detected: H1.0K166me1K180me2 (1.27% of the total peptide in the reaction), H1.0K174me1K180me3 (1.06% of the total peptide in the reaction) and H1.0K174me3K175me3K177me1K180me2 (0.35% of the total peptide in the reaction) as shown in FIG. 9B FIG. 10.

The target in a further test is T1, GLP methyltransferase (Homo sapiens, UniProt Q9H9B1).
T1 construct: purchased Cayman Chemical 10755
T1 sequence (Q9H9B1 1-1298): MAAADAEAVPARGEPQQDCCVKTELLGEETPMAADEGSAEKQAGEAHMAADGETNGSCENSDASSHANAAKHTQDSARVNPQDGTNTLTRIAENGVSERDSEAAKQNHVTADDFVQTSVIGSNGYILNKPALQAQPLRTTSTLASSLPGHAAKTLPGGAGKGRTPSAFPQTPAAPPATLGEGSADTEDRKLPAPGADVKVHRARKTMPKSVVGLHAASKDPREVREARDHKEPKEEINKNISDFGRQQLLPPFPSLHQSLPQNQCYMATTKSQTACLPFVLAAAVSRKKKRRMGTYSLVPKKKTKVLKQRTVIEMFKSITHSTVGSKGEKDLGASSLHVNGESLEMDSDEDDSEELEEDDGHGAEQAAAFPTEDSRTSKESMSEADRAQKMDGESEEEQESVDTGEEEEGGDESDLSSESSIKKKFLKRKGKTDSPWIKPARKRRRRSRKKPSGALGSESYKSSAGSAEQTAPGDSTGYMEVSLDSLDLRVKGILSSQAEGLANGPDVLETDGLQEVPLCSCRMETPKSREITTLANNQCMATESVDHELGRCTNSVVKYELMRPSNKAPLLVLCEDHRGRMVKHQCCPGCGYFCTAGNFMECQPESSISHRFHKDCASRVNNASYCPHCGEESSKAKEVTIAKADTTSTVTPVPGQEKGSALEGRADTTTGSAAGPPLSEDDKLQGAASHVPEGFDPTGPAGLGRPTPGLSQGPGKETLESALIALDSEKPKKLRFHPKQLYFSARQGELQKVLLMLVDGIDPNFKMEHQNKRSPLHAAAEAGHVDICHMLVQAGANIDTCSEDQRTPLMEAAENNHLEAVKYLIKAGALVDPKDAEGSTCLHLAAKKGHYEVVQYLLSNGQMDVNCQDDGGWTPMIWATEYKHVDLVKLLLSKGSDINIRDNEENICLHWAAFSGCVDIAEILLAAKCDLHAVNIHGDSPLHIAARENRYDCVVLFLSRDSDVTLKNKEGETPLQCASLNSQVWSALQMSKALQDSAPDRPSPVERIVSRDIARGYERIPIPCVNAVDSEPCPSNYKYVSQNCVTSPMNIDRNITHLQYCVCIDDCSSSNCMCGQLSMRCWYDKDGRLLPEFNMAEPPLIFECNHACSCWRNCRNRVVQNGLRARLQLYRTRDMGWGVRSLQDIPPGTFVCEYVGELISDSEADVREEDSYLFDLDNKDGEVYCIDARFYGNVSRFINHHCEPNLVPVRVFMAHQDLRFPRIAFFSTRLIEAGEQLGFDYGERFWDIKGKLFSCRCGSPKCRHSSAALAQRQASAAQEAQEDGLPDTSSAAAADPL
The experiment in a line: In vitro methylation of K180 dimethylated H1.0 peptide with GLP, products by LC-MS. The class given is biochemical. Particulars: K180 dimethylated H1.0 peptide as substrate, only H1.0K180 and H1.0K174 further methylated. As to the method:
In order to identify the precise sites of methylation by G9A and GLP methyltransferases on histone H1.0, in vitro methylation assays were performed and subsequently analyzed by Liquid Chromatography and High-resolution Mass Spectrometry (LC-MS) analysis. Methylation reactions were set up using either G9A methyltransferase (NEB, M0235S, Lot #0031201) or GLP methyltransferase (Cayman Chemical, 10755). The methyl donor in each reaction was unlabeled S-Adenosyl-L-Methionine (NEB, B9003S). […]
For the Liquid Chromatography and High-resolution Mass Spectrometry (LC-MS) analysis, samples were prepared as described above and about 1 μg o the product was injected onto a Thermo Scientific Easy nLC system configured with a 10 cm×100 um trap column and a 25 cm×100 um ID resolving column. […] This ensured optimal full-scan data for quantification. […]
Protein identification was performed using Thermo Scientific Proteome Discoverer version 1.4 (including Sequest and Percolator algorithms) using RefSeqHuman sequence database. […] Protein quantification was performed using Pinpoint version 1.4 software. The Pinpoint quantification workflow included importing the Proteome Discoverer .msf files as spectral libraries. Identified peptides were subsequently quantified in MS .raw files using the Pinpoint peak finding, chromatographic alignment and area calculation algorithms. […]

For test [1], the system named is secretion of H1.0K180me2 from hADSCs. Kind of test: Slot blot of culture media of hADSCs treated with bleomycin. The class given is cell-based, human. How it is done:
0.5 μl of serum sample or known amounts of synthesized peptide were diluted in 200 μl TBS. Samples were then heat denatured at 70° C. for 10 minutes before being transferred to nitrocellulose membrane using a vacuum manifold slot blot apparatus (BioRad, 1706542). The membrane was blocked with 5% non-fat milk in PBS-T for 30 minutes at RT then immunoblotted with the above primary antibodies at 4° C. over night. Proteins were detected with HRP secondary antibodies listed above for 1 hour at RT followed by ECL Western Blotting Substrate (ThermoFisher, 32106) using manufacturers instructions. All washes between steps were with PBS-T. Membranes were imaged with Omega LUM-C imaging system (Gel Company). Slot blot bands for each sample were then quantified using ImageJ.
SR hADSCs, hADSCs treated with bleomycin for 2 hours (acute DNA damage) and hADSCs treated with bleomycin and allowed to senesce for 3 days (genotoxic stress induced senescence) were lysed and fractionated into soluble and chromatin bound fractions. These fractions were then subjected to LC-MS/MS analysis. Peptide expression levels were taken as the total area under the LC-MS/MS relative intensity curve, and individual peptides were unambiguously assigned to proteins using Pinpoint software, version 1.4 (Thermo Scientific). The areas of all peptides assigned to an individual protein were summed to yield protein expression levels, which were normalized against the total protein library size for each sample. For each cellular fraction, H1.0 peptide abundance is represented as a percentage of total H1.0 peptides observed in each condition. Normalized absolute values of H1.0 peptide levels in each fraction were also shown. […] Culture media from SR hADSCs treated with bleomycin was collected for slot blot analysis with α-H1.0 and α-H1.0K180me2 antibodies to assess secretion of H1.0 to the extracellular matrix (ECM). The experiment was carried out according to methods described in Example 1. […] This signifies secretion out of the cells.

A further test relates to H1.0K180me2 in hADSCs. The experiment in a line: Western blot / localization of H1.0K180me2 in hADSCs after bleomycin (acute DNA damage). The class given is cell-based, human. As to the method:
(§1) For replicative senescence, hADSCs were grown in culture until reaching replicative exhaustion (PD 41-46). For acute DNA damage conditions, SR hADSCs (PD 4-10) were treated with 50μg/ml bloemycin sulfate (Cayman Chemical, 13877) in growth media for 2 hours. For genotoxic stress induced senescence, SR hADSCs (PD 4-10) were treated with 50 μg/ml bloemycin sulfate (Cayman Chemical, 13877) in growth media for 2 hours then washed with PBS and given fresh growth media without bleomycin. Cells were then grown for 3 days before collection.
Material for western blot analysis (cultured cells or tissue) was lysed in ice-cold RIPA lysis buffer (Thermo Scientific 89900) and sonicated using a Covaris S2 sonicator (10% duty cycle, Intensity 5, Bursts per minute 100, 120 seconds). Total protein concentration in each sample was quantified using Quick Start Bradford 1× Dye Reagent (BioRad, 5000205) following manufacturer's protocol. Samples were then mixed with NuPAGE LDS sample loading buffer (ThermoFisher, NP0007) and NuPAGE sample reducing buffer (ThermoFisher, NP0004), and heat denatured at 70° C. for 10 minutes. […] Proteins were detected with HRP secondary antibodies listed above for 1 hour at RT followed by ECL Western Blotting Substrate (ThermoFisher, 32106) using manufacturer's instructions. […]
On the technique in general: In western blotting, separated proteins are transferred to a membrane and probed.

Test [2] concerns chromatin bound H1.0 in hADSCs. The experiment in a line: LC-MS/MS of soluble and chromatin bound fractions of hADSCs after bleomycin. The class given is cell-based, human. As to the method: as §1
SR hADSCs, hADSCs treated with bleomycin for 2 hours (acute DNA damage) and hADSCs treated with bleomycin and allowed to senesce for 3 days (genotoxic stress induced senescence) were lysed and fractionated into soluble and chromatin bound fractions. These fractions were then subjected to LC-MS/MS analysis. Peptide expression levels were taken as the total area under the LC-MS/MS relative intensity curve, and individual peptides were unambiguously assigned to proteins using Pinpoint software, version 1.4 (Thermo Scientific). The areas of all peptides assigned to an individual protein were summed to yield protein expression levels, which were normalized against the total protein library size for each sample. For each cellular fraction, H1.0 peptide abundance is represented as a percentage of total H1.0 peptides observed in each condition. […]

The mark [3] stands for this setting: K180me2 peptide (H1.0 AA 165-182) as substrate.

G9A methyltransferase, sequence (Q9Z148 969-1263 limits assumed): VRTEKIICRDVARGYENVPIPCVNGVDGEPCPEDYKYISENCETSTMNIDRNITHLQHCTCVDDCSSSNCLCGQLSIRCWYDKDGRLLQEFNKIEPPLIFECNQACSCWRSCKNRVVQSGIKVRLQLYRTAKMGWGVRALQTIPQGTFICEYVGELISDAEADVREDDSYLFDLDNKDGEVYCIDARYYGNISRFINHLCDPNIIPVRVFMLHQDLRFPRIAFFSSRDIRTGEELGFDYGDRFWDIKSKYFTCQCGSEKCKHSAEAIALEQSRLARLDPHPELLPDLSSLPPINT

In the case of “AKPVKASKPKKAKPVK(me2)PK (chain 1 AKPVKASKPKKAKPVK(Me2)PK; chain 2 AKPVKASKPKKAKPVK(Me2)PK; not fully specified (N-terminus)) [K180 dimethylated H1.0 peptide, H1.0 AA 165-182 peptide dimethylated at K180]”, in the test on G9A methyltransferase (setting [3]), the “H1.0K166me1K180me2, % of the total peptide in the reaction” value is 1.27%; the “H1.0K174me1K180me3, % of the total peptide in the reaction” value was found to be 1.06%; the “H1.0K174me3K175me3K177me1K180me2, % of the total peptide in the reaction” value came out at 0.35%. This substance also yielded a peptides further methylated with G9A methyltransferase (dimethylated H1.0 peptide as substrate) of 2.64%. The substance also showed a peptides further methylated with GLP methyltransferase of 1.02%.
On to bleomycin, for which the “secreted H1.0K180me2 in cell culture media” value in test [1] (after 24 hours of bleomycin treatment) is listed as “secreted H1.0K180me2 was also readily detected”. The “time of maximal H1.0K180me2 secretion” value in test [1] (conditioned medium, time course after bleomycin) is ≤ 48 h. Further, the DFFB secretion entry in test [1] (upon GSI-SEN, starting 48 hours after treatment) is on record as “increase in DFFB secretion”. The “localization of H1.0K180me2” value with H1.0K180me2 in hADSCs (SR hADSCs treated with bleomycin) is on record as “H1.0K180me2 localized to the cytoplasm”. Further, in the test on H1.0K180me2 in hADSCs (bleomycin 50 μg/ml 2 hours, chromatin bound fraction, western blot), the H1.0K180me2 on chromatin result was “methylation of H1.0K180 on the chromatin upon DNA damage; also recorded: H1.0K180me2 is found on chromatin”. Also, the “chromatin bound H1.0, % of total” value is ~60% in test [2] (acute DNA damage (bleomycin 2 hours)) and ~30% in test [2] (genotoxic stress induced senescence (bleomycin 2 hours, then 3 days)).
